Key:
Format in all cases: in vivo
rice (Oryza sativa) = assay: Test B flooded paddy test; conditions: Flood, 1000 g ai/ha; scale 0 to 100
Experimental: (§1) At the same time, plants selected from these crop and weed species and also blackgrass (Alopecurus myosuroides) and wild oat (Avena fatua) were treated with postemergence applications of test chemicals formulated in the same manner. Plants ranged in height from 2 to 18 cm (1- to 4-leaf stage) for postemergence treatments. Plant species in the flooded paddy test consisted of rice (Oryza sativa), umbrella sedge (Cyperus difformis), duck salad (Heteranthera limosa) and barnyardgrass (Echinochloa crus-galli) grown to the 2-leaf stage for testing. Treated plants and controls were maintained in a greenhouse for 13 to 15 days, after which time all species were compared to controls and visually evaluated. Plant response ratings, summarized in Table B, are based on a scale of 0 to 100 where 0 is no effect and 100 is complete control. A dash (-) response means no test result.

[1] = tested on: umbrella sedge (Cyperus difformis); assay: Test B flooded paddy test; conditions: Flood, 1000 g ai/ha; scale 0 to 100
Experimental: as §1

[2] = tested on: barnyardgrass (Echinochloa crus-galli); assay: Test B flooded paddy test; conditions: Flood, 1000 g ai/ha; scale 0 (no effect) to 100 (complete control)
Experimental: as §1

[3] = tested on: duck salad (Heteranthera limosa); assay: Test B flooded paddy test; conditions: Flood, 1000 g ai/ha; scale 0 to 100
Experimental: as §1

[4] = tested on: blackgrass (Alopecurus myosuroides); assay: Test B postemergence; conditions: for Blackgrass plant response rating: 125 g ai/ha, scale 0 to 100 (0 no effect, 100 complete control); for Plant response rating, Blackgrass: 500 g ai/ha, scale 0 to 100
From the text: (§2) Seeds selected from barnyardgrass (Echinochloa crus-galli), Surinam grass (Brachiaria decumbens), cocklebur (Xanthium strumarium), corn (Zea mays), crabgrass (Digitaria sanguinalis), giant foxtail (Setaria faberii), lambsquarters (Chenopodium album), morningglory (Ipomoea coccinea), pigweed (Amaranthus retroflexus), velvetleaf (Abutilon theophrasti), and wheat (Triticum aestivum) were planted and treated preemergence with test chemicals formulated in a non-phytotoxic solvent mixture which included a surfactant.
as §1

wild oat (Avena fatua) = assay: Test B postemergence; conditions: for Oat, Wild plant response rating: 125 g ai/ha, scale 0 to 100 (0 no effect, 100 complete control); for Plant response rating, Oat, Wild: 500 g ai/ha, scale 0 to 100
From the text: as §2, §1

[5] = tested on: Surinam grass (Brachiaria decumbens); assay: Test B pre/postemergence
From the text: as §2, §1

[6] = tested on: pigweed (Amaranthus retroflexus); assay: Test B pre/postemergence
From the text: as §2, §1

[7] = tested on: wheat (Triticum aestivum); assay: Test B pre/postemergence
From the text: as §2, §1

[8] = tested on: giant foxtail (Setaria faberii); assay: Test B pre/postemergence
From the text: as §2, §1

[9] = tested on: barnyardgrass (Echinochloa crus-galli); assay: Test B pre/postemergence
From the text: as §2, §1

[10] = tested on: velvetleaf (Abutilon theophrasti); assay: Test B pre/postemergence
From the text: as §2, §1

[11] = tested on: cocklebur (Xanthium strumarium); assay: Test B pre/postemergence
From the text: as §2, §1

[12] = tested on: morningglory (Ipomoea coccinea); assay: Test B pre/postemergence
From the text: as §2, §1

[13] = tested on: lambsquarters (Chenopodium album); assay: Test B pre/postemergence
From the text: as §2, §1

[14] = tested on: crabgrass (Digitaria sanguinalis); assay: Test B pre/postemergence
From the text: as §2, §1

corn (Zea mays) = assay: Test B pre/postemergence
From the text: as §2, §1

[15] = Postemergence, 125 g ai/ha, scale 0 to 100 (0 no effect, 100 complete control)
[16] = Postemergence, 500 g ai/ha, scale 0 to 100
[17] = Preemergence, 125 g ai/ha, scale 0 to 100 (0 no effect, 100 complete control)
[18] = Preemergence, 500 g ai/ha, scale 0 to 100 (0 no effect, 100 complete control)

For `CCOC(=O)C(C)c1nc(C2CC2)nc(N)c1Br` (stereo not drawn) [Compound 32], the “Plant response rating, Rice” value (rice (Oryza sativa)) was 0, the “Plant response rating, Sedge, Umbrella” value [1] was 0 and the “Plant response rating, Barnyardgrass” value [2] was 0. For the same compound, the “Plant response rating, Ducksalad” value [3] was 0, the “Blackgrass plant response rating” value [4] was 30 and the “Plant response rating, Blackgrass” value [4] was 40. For the same compound, the “Oat, Wild plant response rating” value (wild oat (Avena fatua)) was 20, the “Plant response rating, Oat, Wild” value (wild oat (Avena fatua)) was 30 and the “Surinam Grass plant response rating” value [5, 15] was 0. For the same compound, the “Plant response rating, Surinam Grass” value [5, 16] was 10, the “Plant response rating, Surinam Grass” value [5, 17] was 0 and the “Surinam Grass plant response rating” value [5, 18] was 0. For the same compound, the “Pigweed plant response rating” value [6, 15] was 80, the “Plant response rating, Pigweed” value [6, 16] was 80 and the “Plant response rating, Pigweed” value [6, 17] was 40. The “Pigweed plant response rating” value [6, 18] was 90, the “Wheat plant response rating” value [7, 15] was 20 and the “Plant response rating, Wheat” value [7, 16] was 30. The “Plant response rating, Wheat” value [7, 17] was 0, the “Wheat plant response rating” value [7, 18] was 10 and the “Foxtail, Giant plant response rating” value [8, 15] was 10. For the same compound, the “Plant response rating, Foxtail, Giant” value [8, 16] was 20, the “Plant response rating, Foxtail, Giant” value [8, 17] was 0 and the “Foxtail, Giant plant response rating” value [8, 18] was 0. The “Barnyardgrass plant response rating” value [9, 15] was 20, the “Plant response rating, Barnyardgrass” value [9, 16] was 70 and the “Plant response rating, Barnyardgrass” value [9, 17] was 0. For the same compound, the “Barnyardgrass plant response rating” value [9, 18] was 10, the “Velvetleaf plant response rating” value [10, 15] was 10 and the “Plant response rating, Velvetleaf” value [10, 16] was 50. The “Plant response rating, Velvetleaf” value [10, 17] was 50, the “Velvetleaf plant response rating” value [10, 18] was 80 and the “Cocklebur plant response rating” value [11, 15] was 40. For the same compound, the “Plant response rating, Cocklebur” value [11, 16] was 90, the “Plant response rating, Cocklebur” value [11, 17] was 80 and the “Cocklebur plant response rating” value [11, 18] was 90. The “Morningglory plant response rating” value [12, 15] was 40, the “Plant response rating, Morningglory” value [12, 16] was 90 and the “Plant response rating, Morningglory” value [12, 17] was 40. The “Morningglory plant response rating” value [12, 18] was 80, the “Lambsquarters plant response rating” value [13, 15] was 70 and the “Plant response rating, Lambsquarters” value [13, 16] was 80. For the same compound, the “Plant response rating, Lambsquarters” value [13, 17] was 40, the “Lambsquarters plant response rating” value [13, 18] was 90 and the “Crabgrass plant response rating” value [14, 15] was 10. The “Plant response rating, Crabgrass” value [14, 16] was 20, the “Plant response rating, Crabgrass” value [14, 17] was 0 and the “Crabgrass plant response rating” value [14, 18] was 40. The “Corn plant response rating” value (corn (Zea mays); [15]) was 0, the “Plant response rating, Corn” value (corn (Zea mays); [16]) was 10 and the “Plant response rating, Corn” value (corn (Zea mays); [17]) was 0. For the same compound, the “Corn plant response rating” value (corn (Zea mays); [18]) was 0.
`CCOC(=O)c1nc(C2CC2)nc(NCCN(C)C)c1Br` [Compound 38] was tested, and the “Plant response rating, Rice” value (rice (Oryza sativa)) was 0, the “Plant response rating, Sedge, Umbrella” value [1] was 0 and the “Plant response rating, Barnyardgrass” value [2] was 0. The “Plant response rating, Ducksalad” value [3] was 0, the “Blackgrass plant response rating” value [4] was 0 and the “Plant response rating, Blackgrass” value [4] was 0. The “Oat, Wild plant response rating” value (wild oat (Avena fatua)) was 0, the “Plant response rating, Oat, Wild” value (wild oat (Avena fatua)) was 0 and the “Surinam Grass plant response rating” value [5, 15] was 0. The “Plant response rating, Surinam Grass” value [5, 16] was 20, the “Plant response rating, Surinam Grass” value [5, 17] was 0 and the “Surinam Grass plant response rating” value [5, 18] was 0. The “Pigweed plant response rating” value [6, 15] was 30, the “Plant response rating, Pigweed” value [6, 16] was 30 and the “Plant response rating, Pigweed” value [6, 17] was 10. For the same compound, the “Pigweed plant response rating” value [6, 18] was 70, the “Wheat plant response rating” value [7, 15] was 0 and the “Plant response rating, Wheat” value [7, 16] was 0. For the same compound, the “Plant response rating, Wheat” value [7, 17] was 0, the “Plant response rating, Wheat” value [7, 18] was 0 and the “Foxtail, Giant plant response rating” value [8, 15] was 0. For the same compound, the “Plant response rating, Foxtail, Giant” value [8, 16] was 0, the “Plant response rating, Foxtail, Giant” value [8, 17] was 0 and the “Foxtail, Giant plant response rating” value [8, 18] was 0. The “Barnyardgrass plant response rating” value [9, 15] was 0, the “Plant response rating, Barnyardgrass” value [9, 16] was 0 and the “Plant response rating, Barnyardgrass” value [9, 17] was 0. The “Barnyardgrass plant response rating” value [9, 18] was 0, the “Velvetleaf plant response rating” value [10, 15] was 0 and the “Plant response rating, Velvetleaf” value [10, 16] was 50. The “Plant response rating, Velvetleaf” value [10, 17] was 0, the “Velvetleaf plant response rating” value [10, 18] was 0 and the “Cocklebur plant response rating” value [11, 15] was 0. The “Plant response rating, Cocklebur” value [11, 16] was 0, the “Plant response rating, Cocklebur” value [11, 17] was 0 and the “Cocklebur plant response rating” value [11, 18] was 0. The “Morningglory plant response rating” value [12, 15] was 10, the “Plant response rating, Morningglory” value [12, 16] was 40 and the “Plant response rating, Morningglory” value [12, 17] was 0. For the same compound, the “Morningglory plant response rating” value [12, 18] was 50, the “Lambsquarters plant response rating” value [13, 15] was 20 and the “Plant response rating, Lambsquarters” value [13, 16] was 60. For the same compound, the “Plant response rating, Lambsquarters” value [13, 17] was 20, the “Lambsquarters plant response rating” value [13, 18] was 90 and the “Crabgrass plant response rating” value [14, 15] was 0. For the same compound, the “Plant response rating, Crabgrass” value [14, 16] was 20, the “Plant response rating, Crabgrass” value [14, 17] was 0 and the “Crabgrass plant response rating” value [14, 18] was 0. For the same compound, the “Corn plant response rating” value (corn (Zea mays); [15]) was 0, the “Plant response rating, Corn” value (corn (Zea mays); [16]) was 0 and the “Plant response rating, Corn” value (corn (Zea mays); [17]) was 0. The “Corn plant response rating” value (corn (Zea mays); [18]) was 10.
For `CCOC(=O)c1nc(C2CC2)nc(NCCOC)c1Br` [Compound 39], the “Plant response rating, Rice” value (rice (Oryza sativa)) was 0, the “Plant response rating, Sedge, Umbrella” value [1] was 0 and the “Plant response rating, Barnyardgrass” value [2] was 0. For the same compound, the “Plant response rating, Ducksalad” value [3] was 0, the “Blackgrass plant response rating” value [4] was 0 and the “Plant response rating, Blackgrass” value [4] was 0. For the same compound, the “Oat, Wild plant response rating” value (wild oat (Avena fatua)) was 0, the “Plant response rating, Oat, Wild” value (wild oat (Avena fatua)) was 0 and the “Surinam Grass plant response rating” value [5, 15] was 0. The “Plant response rating, Surinam Grass” value [5, 16] was 30, the “Plant response rating, Surinam Grass” value [5, 17] was 0 and the “Surinam Grass plant response rating” value [5, 18] was 0. The “Pigweed plant response rating” value [6, 15] was 50, the “Plant response rating, Pigweed” value [6, 16] was 70 and the “Plant response rating, Pigweed” value [6, 17] was 70. The “Pigweed plant response rating” value [6, 18] was 100, the “Wheat plant response rating” value [7, 15] was 0 and the “Plant response rating, Wheat” value [7, 16] was 0. The “Plant response rating, Wheat” value [7, 17] was 0, the “Plant response rating, Wheat” value [7, 18] was 10 and the “Foxtail, Giant plant response rating” value [8, 15] was 0. For the same compound, the “Plant response rating, Foxtail, Giant” value [8, 16] was 30, the “Plant response rating, Foxtail, Giant” value [8, 17] was 0 and the “Foxtail, Giant plant response rating” value [8, 18] was 20. For the same compound, the “Barnyardgrass plant response rating” value [9, 15] was 0, the “Plant response rating, Barnyardgrass” value [9, 16] was 70 and the “Plant response rating, Barnyardgrass” value [9, 17] was 0. The “Barnyardgrass plant response rating” value [9, 18] was 20, the “Velvetleaf plant response rating” value [10, 15] was 40 and the “Plant response rating, Velvetleaf” value [10, 16] was 70. For the same compound, the “Plant response rating, Velvetleaf” value [10, 17] was 0, the “Velvetleaf plant response rating” value [10, 18] was 30 and the “Cocklebur plant response rating” value [11, 15] was 30. For the same compound, the “Plant response rating, Cocklebur” value [11, 16] was 50, the “Plant response rating, Cocklebur” value [11, 17] was 10 and the “Cocklebur plant response rating” value [11, 18] was 30. For the same compound, the “Morningglory plant response rating” value [12, 15] was 80, the “Plant response rating, Morningglory” value [12, 16] was 100 and the “Plant response rating, Morningglory” value [12, 17] was 30. For the same compound, the “Morningglory plant response rating” value [12, 18] was 70, the “Lambsquarters plant response rating” value [13, 15] was 70 and the “Plant response rating, Lambsquarters” value [13, 16] was 90. For the same compound, the “Plant response rating, Lambsquarters” value [13, 17] was 50, the “Lambsquarters plant response rating” value [13, 18] was 100 and the “Crabgrass plant response rating” value [14, 15] was 0. For the same compound, the “Plant response rating, Crabgrass” value [14, 16] was 40, the “Plant response rating, Crabgrass” value [14, 17] was 0 and the “Crabgrass plant response rating” value [14, 18] was 50. For the same compound, the “Corn plant response rating” value (corn (Zea mays); [15]) was 0, the “Plant response rating, Corn” value (corn (Zea mays); [16]) was 50 and the “Plant response rating, Corn” value (corn (Zea mays); [17]) was 30. The “Corn plant response rating” value (corn (Zea mays); [18]) was 50.
